Measurements reported in USRE37781E1, “Substituted cyclic carbonyls and derivatives thereof useful as retroviral protease inhibitors” (DuPont Pharmaceuticals Company, priority 1991, dated 2002).
Converted amounts (≈) assume the structure as drawn. Like-named read-outs stand apart in the source and are kept apart here.

What was measured:
[1] = target: single-chain tethered dimer of HIV protease (Human immunodeficiency virus 1, UniProt P04585); assay: biochemical; type: biochemical
Description: HIV Protease Inhibition Assay—HPLC Method
Active protease was prepared as described therein by extraction with 67% acetic acid, dilution 33-fold with water, dialysis against water and then against a “refolding buffer” consisting of 20 mM MES, 1 mM dithiothreitol and 10% glycerol. Protease was stored as a stock preparation at 10 uM in refolding buffer.
Substrate: Peptide of sequence: aminobenzoyl-Ala-Thr-His-Gln-Val-Tyr-Phe(NO2)-Val-Arg-Lys-Ala containing p-nitrophenylalanine, was prepared by solid phase synthesis as previously described Cheng et al., op.cit. Stock solutions of 2 mM substrate were prepared in DMSO.
Inhibitory compounds were dissolved in sufficient DMSO to make 3 mM stock solutions. All further dilutions were prepared in “assay buffer”: 1M NaCl, 50 mM MES, pH 5.5, 1 mM EDTA, 1 mM DTT, […] glycerol.
Enzyme reaction: In a 2 ml screw-cap centrifuge tube were added 50 ul protease (final concentration 0.25 nM) and 0.1 ml inhibitory compound (final concentration […]). After 15 min preincubation at room temperature, the reaction was started with the addition of 0.05 ml substrate (final concentration 5 uM). Incubation was carried out at 30 C. for 1 hr. The reaction was stopped with 1 ml 0.1M ammonium hydroxide.
HPLC measurement of product formation: The product (aminobenzoyl-Ala-Thr-His-Gln-Val-Tyr) was separated from substrate on a Pharmacia MonoQ anion exchange column. The injection volume was 0.2 ml. The mobile phases were: A (20 mM trisHCl, pH 9.0, 0.02% sodium Azide, 10% acetonitrile), B (20 mM tris HCl, pH 9.0, 0.02% sodium azide, 0.5M ammonium formate, 10% acetonitrile). The mobile phases were pumped at 1 ml/min, with a gradient from 0 to 30% B in 5 min, 100% B for 4 min to wash the column, and a re-equilibration for 4 min. The retention time of the product was 3.6 min. Detection with a Shimadzu model RF535 fluorescence monitor was at 330 nm (excitation) and 430 (emission).

HIV-1 (RF) in MT-2 cells = assay: microbe, parasite or virus in culture; type: cell-based
In short: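 Read-out: gag and pol viral RNA captured by 5′-biotinylated oligonucleotides on streptavidin-coated wells, detected with alkaline phosphatase-linked reporter oligonucleotides, calibrated against BH10 in vitro transcripts. Virus stocks (RF, MN, IIIB) come from H9 cultures; MT-2 host cells kept in RPMI 1640, 5% FCS.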

[2] = Human immunodeficiency virus 1, MT2, HIV RNA assay, HIV-1 infected MT-2 cells, class symbols, read-out: IC90
[3] = HIV protease inhibition, class symbols, read-out: Ki
[4] = HIV RNA assay, HIV-1 infected MT-2 cells, class symbols

SMILES: O=C1N(Cc2ccc(F)cc2)C(Cc2ccccc2)C(O)C(O)C(Cc2ccccc2)N1Cc1ccc2ccccc2c1 (centres unmarked) [Example 5Q]
- Ki [1]: < 10 nM
- IC90 (HIV-1 (RF) in MT-2 cells; [2]): < 10 µg/mL
- melting point: 105 to 107 °C

SMILES: CCOCCN1C(=O)N(CCOCC)C(Cc2ccccc2)C(O)C(O)C1Cc1ccccc1 (centres unmarked) [Example 3R]
- Ki [1]: > 1000 nM
- IC90 (HIV-1 (RF) in MT-2 cells; [2]): > 100 µg/mL
- melting point: 148 to 150 °C

SMILES: O=Cc1ccc(CN2C(=O)N(Cc3ccc(C=O)cc3)C(Cc3ccccc3)C(O)C(O)C2Cc2ccccc2)cc1 (centres unmarked) [Example 5X]
- Ki [1]: < 10 nM
- IC90 (HIV-1 (RF) in MT-2 cells; [2]): < 10 µg/mL
- melting point: 90 to 91 °C

SMILES: CCN1C(=O)N(Cc2ccccc2)C(Cc2ccccc2)C(O)C(O)C1Cc1ccccc1 (centres unmarked) [Example 4A]
- Ki [1]: < 10 nM
- IC90 (HIV-1 (RF) in MT-2 cells; [2]): < 10 µg/mL
- melting point: 190 to 193 °C

SMILES: O=C1N(Cc2ccc3ccccc3c2)C(Cc2ccccc2)C(O)C(O)C(Cc2ccccc2)N1Cc1ccccn1 (centres unmarked) [Example 4Y]
- Ki [1]: 10 to 1000 nM
- IC90 (HIV-1 (RF) in MT-2 cells; [2]): < 10 µg/mL
- melting point: 165 to 166 °C

SMILES: O=C1N(Cc2cc(F)cc(F)c2)C(Cc2ccccc2)C(O)C(O)C(Cc2ccccc2)N1Cc1cc(F)cc(F)c1 (centres unmarked) [Example 6ZC]
- Ki [1]: 10 to 1000 nM
- IC90 (HIV-1 (RF) in MT-2 cells; [2]): 10 to 100 µg/mL (≈ 17.3 to 173 µM)
- melting point: 167.9 °C

SMILES: O=C1N(Cc2cccc(Cl)c2)C(Cc2ccccc2)C(O)C(O)C(Cc2ccccc2)N1Cc1cccc(Cl)c1 (centres unmarked) [Example 6X]
- Ki [1]: < 10 nM
- IC90 (HIV-1 (RF) in MT-2 cells; [2]): < 10 µg/mL
- melting point: 210.3 °C

SMILES: CCCCN1C(=O)N(Cc2ccc3ccccc3c2)C(Cc2ccccc2)C(O)C(O)C1Cc1ccccc1 (centres unmarked) [Example 4U]
- Ki [1]: < 10 nM
- IC90 (HIV-1 (RF) in MT-2 cells; [2]): < 10 µg/mL
- melting point: 78 to 80 °C

SMILES: O=C1N(Cc2cccc(CO)c2)C(Cc2ccccc2)C(O)C(O)C(Cc2ccccc2)N1Cc1cccc(CO)c1 (centres unmarked) [Example 5S]
- Ki [1]: < 10 nM
- IC90 (HIV-1 (RF) in MT-2 cells; [2]): < 10 µg/mL
- melting point: 94 to 95 °C

SMILES: COCCN1C(=O)N(CCOC)C(Cc2ccccc2)C(O)C(O)C1Cc1ccccc1 (centres unmarked) [Example 3N]
- Ki [1]: 10 to 1000 nM
- IC90 (HIV-1 (RF) in MT-2 cells; [2]): > 100 µg/mL
- melting point: 183 to 185 °C

SMILES: CC(C)N1C(=O)N(Cc2cccc(O)c2)C(Cc2ccccc2)C(O)C(O)C1Cc1ccccc1 (centres unmarked) [Example 5Z]
- Ki [1]: < 10 nM
- IC90 (HIV-1 (RF) in MT-2 cells; [2]): < 10 µg/mL
- melting point: 212 to 213 °C

SMILES: C=CCN1C(=O)N(Cc2ccccn2)C(Cc2ccccc2)C(O)C(O)C1Cc1ccccc1 (centres unmarked) [Example 5C]
- Ki [1]: 10 to 1000 nM
- IC90 (HIV-1 (RF) in MT-2 cells; [2]): < 10 µg/mL
- melting point: 160 to 162 °C

SMILES: CC(C)=CCN1C(=O)N(Cc2ccccc2)C(Cc2ccccc2)C(O)C(O)C1Cc1ccccc1 (centres unmarked) [Example 3Y]
- Ki [1]: < 10 nM
- IC90 (HIV-1 (RF) in MT-2 cells; [2]): < 10 µg/mL
- melting point: 173 to 174 °C

SMILES: O=C1N(Cc2ccc3ccccc3c2)C(Cc2ccccc2)C(O)C(O)C(Cc2ccccc2)N1CC1CCCC1 (centres unmarked) [Example 4L]
- Ki [1]: < 10 nM
- IC90 (HIV-1 (RF) in MT-2 cells; [2]): < 10 µg/mL
- melting point: 89 to 92 °C

SMILES: C=CCN1C(=O)NC(Cc2ccccc2)C(O)C(O)C1Cc1ccccc1 (centres unmarked) [Example 5A]
- Ki [1]: > 1000 nM
- melting point: 180 to 182 °C

SMILES: O=C1N(Cc2ccc3ccccc3c2)C(Cc2ccccc2)C(O)C(O)C(Cc2ccccc2)N1CC1CC1 (centres unmarked) [Example 4K]
- Ki [1]: < 10 nM
- IC90 (HIV-1 (RF) in MT-2 cells; [2]): < 10 µg/mL
- melting point: 175 to 178 °C

SMILES: O=C1N(Cc2cccc([N+](=O)[O-])c2)C(Cc2ccccc2)C(O)C(O)C(Cc2ccccc2)N1Cc1cccc([N+](=O)[O-])c1 (centres unmarked) [Example 6Z]
- Ki [1]: < 10 nM
- IC90 (HIV-1 (RF) in MT-2 cells; Human immunodeficiency virus 1, MT2): < 10 µg/mL
- melting point: 248.3 °C

SMILES: O=C1N(Cc2ccncc2)C(Cc2ccccc2)C(O)C(O)C(Cc2ccccc2)N1Cc1ccc2ccccc2c1 (centres unmarked) [Example 4Z]
- Ki [1]: < 10 nM
- IC90 (HIV-1 (RF) in MT-2 cells; [2]): < 10 µg/mL
- melting point: 118 to 121 °C

SMILES: O=C(O)c1cccc(CN2C(=O)N(Cc3cccc(C(=O)O)c3)C(Cc3ccccc3)C(O)C(O)C2Cc2ccccc2)c1 (centres unmarked) [Example 6A]
- Ki [1, 3]: < 10 nM
- IC90 (HIV-1 (RF) in MT-2 cells; [4]): +++ (+++=<10 μg/mL)

SMILES: O=C1N(Cc2cccc(O)c2)C(Cc2ccccc2)C(O)C(O)C(Cc2ccccc2)N1CC1CC1 (centres unmarked) [Example 6D]
- Ki [1, 3]: < 10 nM
- IC90 (HIV-1 (RF) in MT-2 cells; [4]): +++ (+++=<10 μg/mL)

SMILES: O=C1N(Cc2ccc(Cl)cc2)C(Cc2ccccc2)C(O)C(O)C(Cc2ccccc2)N1Cc1ccc(Cl)cc1 (centres unmarked) [Example 6U]
- Ki [1]: < 10 nM
- IC90 (HIV-1 (RF) in MT-2 cells; [2]): < 10 µg/mL
